“And” between values parts separate entries of the source, which are not always exact repeats. Identical values can stand only once.
How the values were obtained:
[1] = system: MES-induced amnesia; assay: MES-induced amnesia of conditioned passive avoidance reflex (CPAR); format: in vivo; settings: rat; for Antiamnesic activity, MES-induced amnesia, 1 and 2 mg/kg: doses of 1 and 2 mg/kg; for Potency in comparison with piracetam, MES-induced amnesia: vs piracetam 300 mg/kg; for Antiamnesic activity, MES-induced amnesia, 1 mg/kg: comparable with piracetam 300 mg/kg
Protocol: (§1) The development of CPAR was performed on a standard passive avoidance device from Lafayette Instrument Co. (United States). The device consists of a small platform located at a distance of 1 m from the floor, illuminated by a special lamp, and a dark chamber with an electrode floor. During learning, a rat was placed on the small platform in front of the entrance to the dark chamber. Immediately after entering the dark chamber, the rat received a painful stimulation from an electric current of 0.6 mA through the electrode floor lasting 10 s or until the rat ran out of the chamber (learning). […] If the rat entered the dark chamber, the training was repeated. A test for the refiex reproduction was performed after 24 h. In this case, the rat was placed on a lighted area, and step-through latency time (STL) of its entry into the dark chamber was recorded. The observation time was 3 min. The criterion for refiex reproduction was considered to be the STL of entry into the dark box.
In the second model, effects of POP inhibitors on MES-induced amnesia were studied. The series included fifteen groups of animals (110 rats). Rats in the negative control group (group 1, n = 8) received 2 ml of vehicle (physiological saline solution containing 1% Tween 80) i.p. 30 min before the CPAR learning. Rats in the positive control group (group 2, n = 7) received MES just after CPAR learning. MES was induced using an electric shock generator from Harvard Apparatus (Holliston, MA, United States) consisting of a current (250 V, 120–122 20 mA, delivered for 0.1 s) by way of corneal electrodes. Rats of groups 3–14 received a single injection of POP inhibitor at doses of 0.5, 1, and 2 mg/kg, including BocTrpPrdN (groups 3–5, n = 7 in each), BocGlyPrdN (groups 6–8, n = 6 in each), CbzMetPrdN (groups 9–11, n = 8 in each), and CbzGlnPrdN (groups 12–14, n = 8 in each) 40 min prior to the CPAR learning (three groups of animals for each inhibitor) with following MES just after CPAR learning. Rats in group 15 (n = 8) received piracetam (300 mg/kg, i.p.) 50 min before the CPAR learning and MES just after CPAR learning.

[2] = molecular target: T1, POP isolated from rat brain (Rattus norvegicus, UniProt O70196); assay: POP inhibition assay (release of AMC from Cbz-Ala-Pro-AMC); format: biochemical; settings: substrate Cbz-Ala-Pro-AMC 20 μM, 30 min at 37°C, pH 7.5, read-out: IC50, POP inhibitory activity
T1 construct: the resulting POP preparation was a homogeneous monomer with molecular weight of 75 kDa; from tissue; host or cells: rat brain
T1 sequence (O70196 1-710): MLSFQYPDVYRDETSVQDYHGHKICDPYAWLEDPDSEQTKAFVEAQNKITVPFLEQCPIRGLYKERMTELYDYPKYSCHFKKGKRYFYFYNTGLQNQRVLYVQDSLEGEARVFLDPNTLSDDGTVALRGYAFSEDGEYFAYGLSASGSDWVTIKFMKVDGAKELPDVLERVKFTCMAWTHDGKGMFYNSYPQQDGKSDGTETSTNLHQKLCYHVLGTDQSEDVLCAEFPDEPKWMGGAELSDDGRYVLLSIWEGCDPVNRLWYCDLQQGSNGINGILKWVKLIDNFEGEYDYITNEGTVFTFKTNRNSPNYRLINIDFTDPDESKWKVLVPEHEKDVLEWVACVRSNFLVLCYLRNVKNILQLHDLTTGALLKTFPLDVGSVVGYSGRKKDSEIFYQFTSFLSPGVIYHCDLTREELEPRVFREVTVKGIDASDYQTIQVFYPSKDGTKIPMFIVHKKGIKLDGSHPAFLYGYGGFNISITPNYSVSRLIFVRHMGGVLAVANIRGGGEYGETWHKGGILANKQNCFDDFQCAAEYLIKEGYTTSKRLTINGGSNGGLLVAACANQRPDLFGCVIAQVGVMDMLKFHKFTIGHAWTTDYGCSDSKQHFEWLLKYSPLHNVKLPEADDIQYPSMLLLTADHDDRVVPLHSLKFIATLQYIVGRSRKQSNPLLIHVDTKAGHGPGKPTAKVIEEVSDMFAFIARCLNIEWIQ
Protocol: Briefly, rat brain homogenate was precipitated with ammonium sulfate, followed by ion exchange chromatography on DEAE-Sephadex A-50, gel chromatography on Sephadex G-75, and high-performance liquid chromatography on a MonoQ column using FPLC. […] Purified POP was concentrated by ultrafiltration and stored at −80°C.
The reaction was initiated by addition of the substrate (20 μM) in a final reaction volume of 2 ml. The incubation mixture consisted of 50 μl of the enzyme preparation in 20 mM Tris-HCl buffer (pH 7.5) with 1 mM EDTA, 1 mM dithiothreitol, and 0.1% NP–40; 50 μl of 1 mg/ml substrate solution in DMSO; and 1.9 ml of Tris-HCl buffer. […] After a 30-min incubation at 37°C, the reaction was stopped by addition of 1 ml of acetate buffer (pH 4.0). The AMC concentration was determined on an LS–5B spectrofluorometer (Perkin–Elmer, United States) with excitation and emission wavelengths of 380 and 460 nm, respectively.

[3] = system: scopolamine-induced amnesia; assay: Scopolamine-induced amnesia of conditioned passive avoidance reflex (CPAR); format: in vivo, rat; settings: for CPAR retention time, scopolamine-induced amnesia: doses 1 and 2 mg/kg i.p., vs scopolamine only
Protocol: as §1
Experiments were performed using two rat models of amnesia. In the first model, effects of POP inhibitors on scopolamine-induced amnesia were studied. The series included eighteen groups of animals (137 rats). Rats in the negative control group (group 1, n = 8) received 2 ml of vehicle (physiological saline solution containing 1% Tween 80) i.p. 40 min before the CPAR learning. Rats in the non-treated group (group 2, n = 7) received scopolamine (1 mg/kg, i.p. in 2 ml of vehicle) 20 min before the CPAR learning. […].

[4] = parameters: method as in Jalkanen et al., 2011a; Jalkanen et al., 2014; settings: mouse and rat, ref Jalkanen et al., 2011a, 2014; cited from earlier work
[5] = system: MPTP-induced Parkinsonian syndrome; parameters: method as in earlier work; settings: ref Khlebnikova et al., 2009b, Krupina et al., Khlebnikova et al., 2012, 2013a, 2013b, Kalinina et al., 2019; cited from earlier work
[6] = system: dipeptidyl peptidase IV (DPP-4); parameters: method as in Ivanova et al., 2020; settings: ref Ivanova et al., 2020; cited from earlier work
[7] = molecular target: T2, POP (Rattus norvegicus, UniProt O70196); assay: POP activity in brain tissue homogenate after single i.p. administration; format: in vivo
T2 construct: from tissue; host or cells: brain homogenate of rats dosed i.p. with CbzMetPrdN
T2 sequence (O70196 1-710): T1 sequence (O70196 1-710)
Protocol: (§2) The total drug concentrations for CbzMetPrdN and POP activity in the brain were determined as a function of time at 0, 20, 40, 60, 80, and 120 min (n = 3 for each time-point) after a single 20 mg/kg intraperitoneal (i.p.) administration of CbzMetPrdN. The test animals were sacrificed, and their brains were harvested and immediately homogenized in phosphate buffer saline.
POP activity in the brain tissue homogenate was measured using Cbz-Ala-Pro-AMC, as described above, and is presented as nmole AMC released/min/mg of brain protein. Protein concentrations of the supernatants were determined with a Bio-Rad protein assay kit.

[8] = Tissue concentration of CbzMetPrdN in the brain after single i.p. administration; format: in vivo; settings: single i.p. 20 mg/kg
Protocol: as §2
For measurement of the brain tissue concentration of CbzMetPrdN, the homogenate was mixed with an equal volume of methanol and centrifuged at 3,000 g for 10 min. The supernatant was concentrated to 2 ml, followed by solid phase extraction in a Retain AX SPE cartridge (Thermo Fisher Scientific). The cartridge was washed with 1 ml of 5% ammonia solution and then with 1 ml of methanol. The sample was eluted with 1 ml of 2% trifluoroacetic acid in methanol and analyzed using a Gilson 41 HPLC system (Gilson, United Kingdom) with a 125 × 4 mm Nucleosil C18 column (Macherey-Nagel). The column was washed for 3 min with 4 mM hexanesulfonate in water (pH 3.5), followed by a 0–100% gradient of 4 mM hexanesulfonate in acetonitrile:water (50:50) % (v/v) over 10 min. The concentration of the POP inhibitor is expressed in ng of CbzMetPrdN per mg of brain protein.

## CC(C)(C)OC(=O)NCC(=O)N1CCC[C@H]1C#N [BocGlyPrdN, N-(tert-butoxycarbonyl)glycyl-(2S)-pyrrolidine-2-carbonitrile]
[1]
  Antiamnesic activity, MES-induced amnesia, 1 and 2 mg/kg: exhibited antiamnesic activity
  Potency in comparison with piracetam, MES-induced amnesia: less potent
[2]
  IC50: 12 ± 3 nM
[3]; rat, scopolamine 1 mg/kg
  CPAR retention time, scopolamine-induced amnesia: significantly prolonged CPAR retention time

## CC(C)(C)OC(=O)N[C@@H](Cc1c[nH]c2ccccc12)C(=O)N1CCC[C@H]1C#N [BocTrpPrdN, N-(tert-butoxycarbonyl)-L-tryptophanyl-(2S)-pyrrolidine-2-carbonitrile]
[1]
  Antiamnesic activity, MES-induced amnesia, 1 and 2 mg/kg: exhibited antiamnesic activity
  Potency in comparison with piracetam, MES-induced amnesia: less potent
[2]
  IC50: 9 ± 0.9 nM
[3]; rat, 0.5-2 mg/kg i.p., scopolamine 1 mg/kg
  Antiamnesic activity, scopolamine-induced amnesia (overall): clear tendency toward antiamnesic activity

## N#C[C@@H]1CCCN1C(=O)[C@@H]1CCCN1C(=O)CCCc1ccccc1 [KYP-2047, (2S)-1-[[(2S)-1-(1-oxo-4-phenylbutyl)-2-pyrrolidinyl]carbonyl]-2-pyrrolidinecarbonitrile]
[4]
  Brain penetration: penetrates mouse and rat brains

## CSCC[C@H](NC(=O)OCc1ccccc1)C(=O)N1CCC[C@H]1C#N [CbzMetPrdN, N-Benzyloxycarbonyl-L-methionyl-(2S)-pyrrolidine-2-carbonitrile]
[1]
  Antiamnesic activity, MES-induced amnesia, 1 mg/kg: potent antiamnesic activity
[2]
  IC50: 2.1 ± 0.6 nM
[5]
  Effect in preclinical model of Parkinsonian syndrome (MPTP): exhibited neuroprotective activity and abolished depressive symptoms
[3]; rat, scopolamine 1 mg/kg
  CPAR retention time, scopolamine-induced amnesia: significantly prolonged CPAR retention time
[6]
  Inhibition of DPP-4 activity: inhibited activity
[7]; administered intraperitoneally
  Inhibition of POP in the brain: effectively inhibits POP in the brain
[7]; single i.p. 20 mg/kg
  Time of maximal inhibition of brain POP activity: 60 min
[8]; rat
  Time point with maximal concentration in the brain: 60 min
[8]; 0-120 min
  Accumulation in rat brain tissue: accumulated in the brain

## N#C[C@@H]1CCCN1C(=O)[C@H](CCC(N)=O)NC(=O)OCc1ccccc1 [CbzGlnPrdN, N-Benzyloxycarbonyl-L-glutaminyl-(2S)-pyrrolidine-2-carbonitrile]
[1]
  Antiamnesic activity, MES-induced amnesia, 1 mg/kg: potent antiamnesic activity
[2]
  IC50: ~2 nM and 2 nM
[3]; rat, scopolamine 1 mg/kg
  CPAR retention time, scopolamine-induced amnesia: significantly prolonged CPAR retention time

## C[C@H](NC(=O)OCc1ccccc1)C(=O)N1CCC[C@H]1C#N [CbzAlaPrdN, N-benzoxycarbonyl-L-alanyl-(2S)-pyrrolidine-2-carbonitrile]
[3]; rat, 0.5, 1 and 2 mg/kg i.p., scopolamine 1 mg/kg
  Antiamnesic effect, scopolamine-induced amnesia, all doses: not effective

## CN1[C@@H]2C[C@@H](OC(=O)[C@H](CO)c3ccccc3)C[C@H]1[C@@H]1O[C@@H]12 [scopolamine, reference compound]
[3]; rat, scopolamine 1 mg/kg i.p. 20 min before learning, vehicle-treated rats 145.0 ± 21.7 s
  Latency period (STL) in CPAR test: 23.5 ± 9.6 s

— PMC8727363, “Therapeutic Effect of Novel Cyanopyrrolidine-Based Prolyl Oligopeptidase Inhibitors in Rat Models of Amnesia” (Frontiers in Chemistry, 2021)
